Laboratory results taken from ChEMBL document CHEMBL3351704, “Synthesis and biological evaluation of 4-oxoquinoline-3-carboxamides derivatives as potent anti-fibrosis agents” (Bioorg Med Chem Lett, 2014).
Activity calls are given as the source filed them. The calls are words filed in the database; no cut-off is given here.

How the values were obtained:
NRK-49F [1] = experiment: Inhibition of TGF-beta1-induced total collagen accumulation in rat NRK-49F cells at 10 uM; type: functional
RAW264.7 = experiment: Inhibition of LPS-induced TNFalpha production in mouse RAW264.7 cells 10 uM; type: functional
NRK-49F [2] = experiment: Inhibition of TGF-beta1-induced total collagen accumulation in rat NRK-49F cells; type: functional, cell-based
Mus musculus [3] = experiment: Anti-fibrotic activity in mouse bleomycin-induced lung fibrosis model assessed as reduction in inflammatory infiltrate level at 20 mg/kg/day, ip before bleomycin injection by H and E staining; type: functional, organism-based
Mus musculus [4] = experiment: Anti-fibrotic activity in mouse bleomycin-induced lung fibrosis model assessed as reduction in lung injury at 20 mg/kg/day, ip before bleomycin injection by H and E staining; type: functional, organism-based
Mus musculus [5] = experiment: Anti-fibrotic activity in mouse bleomycin-induced lung fibrosis model assessed as reduction of lung collagen deposition at 20 mg/kg/day, ip before bleomycin injection by H and E staining; type: functional, organism-based
NRK-49F [6] = experiment: Inhibition of TGF-beta1-induced total collagen accumulation in rat NRK-49F cells at 3 uM by picro-sirius red staining method; type: functional, cell-based
NRK-49F [7] = experiment: Inhibition of TGF-beta1-induced total collagen accumulation in rat NRK-49F cells at 5 uM by picro-sirius red staining method; type: functional, cell-based
Mus musculus [8] = experiment: Anti-fibrotic activity in mouse bleomycin-induced lung fibrosis model assessed as cumulative proportion of survival at 20 mg/kg/day, ip before bleomycin injection measured on day 28; type: functional; settings: 672 h, route intraperitoneal
Mus musculus [9] = experiment: Anti-fibrotic activity in mouse bleomycin-induced lung fibrosis model assessed as slowing of body weight loss at 20 mg/kg/day, ip before bleomycin injection measured on day 28; type: functional, organism-based
Mus musculus [10] = experiment: Anti-fibrotic activity in mouse bleomycin-induced lung fibrosis model assessed as reduction in leukocytes in bronchoalveolar lavage fluid at 20 mg/kg/day, ip before bleomycin injection; type: functional; settings: route intraperitoneal
Mus musculus [11] = experiment: Anti-fibrotic activity in mouse bleomycin-induced lung fibrosis model assessed as reduction in lymphocytes in bronchoalveolar lavage fluid at 20 mg/kg/day, ip before bleomycin injection; type: functional; settings: route intraperitoneal
Mus musculus [12] = experiment: Anti-fibrotic activity in mouse bleomycin-induced lung fibrosis model assessed as reduction in neutrophils in bronchoalveolar lavage fluid at 20 mg/kg/day, ip before bleomycin injection; type: functional; settings: route intraperitoneal
Mus musculus [13] = experiment: Anti-fibrotic activity in mouse bleomycin-induced lung fibrosis model assessed as reduction in hydroxyproline level at 20 mg/kg/day, ip before bleomycin injection; type: functional

COc1ccc(NC(=O)c2c[nH]c3ccc(C(C)(C)C)cc3c2=O)cc1OC
inhibition at 10 µM (NRK-49F [1]): 32.6%

CC(C)(C)c1cc(C(C)(C)C)c(NC(=O)c2c[nH]c3ccccc3c2=O)cc1O [IVACAFTOR]
inhibition at 10 µM (NRK-49F [1]): 64.7%
inhibition (INH) (RAW264.7): 63.2%
IC50 (NRK-49F [2]): 4000 nM
inhibition (Mus musculus [3]): inactive
inhibition (Mus musculus [4]): inactive
inhibition (Mus musculus [5]): inactive

CC(C)(C)c1ccc(NC(=O)c2cn(CCN3CCOCC3)c3ccc(C(C)(C)C)cc3c2=O)cc1
inhibition at 10 µM (NRK-49F [1]): 71.1%
inhibition (INH) (RAW264.7): 69.5%
IC50 (NRK-49F [2]): 2300 nM
inhibition (NRK-49F [6]): Active
inhibition (NRK-49F [7]): Active

Cc1ccc2[nH]cc(C(=O)Nc3cc(O)c(C(C)(C)C)cc3C(C)(C)C)c(=O)c2c1
inhibition at 10 µM (NRK-49F [1]): 49.9%

COc1ccc(NC(=O)c2c[nH]c3ccc(C(C)(C)C)cc3c2=O)cc1
inhibition at 10 µM (NRK-49F [1]): 23.5%

CC(C)(C)c1cc(C(C)(C)C)c(NC(=O)c2c[nH]c3ccc(F)cc3c2=O)cc1O
inhibition at 10 µM (NRK-49F [1]): 51.6%

CCc1ccc2[nH]cc(C(=O)Nc3cc(O)c(C(C)(C)C)cc3C(C)(C)C)c(=O)c2c1
inhibition at 10 µM (NRK-49F [1]): 55.9%

CC(C)(C)c1ccc2[nH]cc(C(=O)Nc3ccc(C(C)(C)C)c(N)c3)c(=O)c2c1
inhibition at 10 µM (NRK-49F [1]): 67.9%
inhibition (INH) (RAW264.7): 71.3%
IC50 (NRK-49F [2]): 4100 nM
inhibition (NRK-49F [6]): Active

CC(C)(C)c1ccc2[nH]cc(C(=O)Nc3ccccc3C(C)(C)C)c(=O)c2c1
inhibition at 10 µM (NRK-49F [1]): 54.3%

CN1CCN(CCCn2cc(C(=O)Nc3ccc(C(C)(C)C)cc3)c(=O)c3cc(C(C)(C)C)ccc32)CC1
inhibition at 10 µM (NRK-49F [1]): 52.1%

CCc1ccc(NC(=O)c2c[nH]c3ccc(C(C)(C)C)cc3c2=O)cc1
inhibition at 10 µM (NRK-49F [1]): 19.4%

CC(C)(C)c1ccc2[nH]cc(C(=O)Nc3ccc(Cl)cc3)c(=O)c2c1
inhibition at 10 µM (NRK-49F [1]): 27.2%

CC(C)(C)c1ccc(NC(=O)c2cn(CCN3CCCC3)c3ccc(C(C)(C)C)cc3c2=O)cc1
inhibition at 10 µM (NRK-49F [1]): 44.8%

CC(C)(C)c1ccc(NC(=O)c2c[nH]c3ccc(C(C)(C)C)cc3c2=O)cc1
inhibition at 10 µM (NRK-49F [1]): 81%
inhibition (INH) (RAW264.7): 61.6%
IC50 (NRK-49F [2]): 2000 nM
inhibition (NRK-49F [6]): Active
survival at 20 mg/kg/day (Mus musculus [8]): 83.3%
Activity (Mus musculus [9]): Active
inhibition in vivo at 20 mg/kg/day (Mus musculus [10]): 40.3%
inhibition in vivo at 20 mg/kg/day (Mus musculus [11]): 33.6%
inhibition in vivo at 20 mg/kg/day (Mus musculus [12]): 39.7%
inhibition (Mus musculus [13]): Active
inhibition (Mus musculus [3]): inactive
inhibition (Mus musculus [4]): inactive
inhibition (Mus musculus [5]): inactive

CC(C)(C)c1ccc2[nH]cc(C(=O)Nc3cccc(Cl)c3)c(=O)c2c1
inhibition at 10 µM (NRK-49F [1]): 30.5%

COc1ccc2[nH]cc(C(=O)Nc3cc(O)c(C(C)(C)C)cc3C(C)(C)C)c(=O)c2c1
inhibition at 10 µM (NRK-49F [1]): 53.1%

CC(C)(C)c1ccc(NC(=O)c2cn(CCCN3CCOCC3)c3ccc(C(C)(C)C)cc3c2=O)cc1
inhibition at 10 µM (NRK-49F [1]): 30.2%

CCn1cc(C(=O)Nc2ccc(C(C)(C)C)cc2)c(=O)c2cc(C(C)(C)C)ccc21
inhibition at 10 µM (NRK-49F [1]): 34.3%

CC(C)(C)c1ccc(NC(=O)c2cn(Cc3ccccc3)c3ccc(C(C)(C)C)cc3c2=O)cc1
inhibition at 10 µM (NRK-49F [1]): 9.1%

CC(C)(C)c1cccc(NC(=O)c2c[nH]c3ccc(C(C)(C)C)cc3c2=O)c1
inhibition at 10 µM (NRK-49F [1]): 44.8%

CCCCn1cc(C(=O)Nc2ccc(C(C)(C)C)cc2)c(=O)c2cc(C(C)(C)C)ccc21
inhibition at 10 µM (NRK-49F [1]): 16.9%

Cc1ccc(NC(=O)c2c[nH]c3ccc(C(C)(C)C)cc3c2=O)cc1
inhibition at 10 µM (NRK-49F [1]): 28.9%

COc1cc(NC(=O)c2c[nH]c3ccc(C(C)(C)C)cc3c2=O)cc(OC)c1OC
inhibition at 10 µM (NRK-49F [1]): 77.1%
inhibition (INH) (RAW264.7): 70.8%
IC50 (NRK-49F [2]): 2500 nM
inhibition (NRK-49F [6]): Active
inhibition (NRK-49F [7]): Active
survival at 20 mg/kg/day (Mus musculus [8]): 72.2%
Activity (Mus musculus [9]): Active
inhibition in vivo at 20 mg/kg/day (Mus musculus [10]): 54.8%
inhibition in vivo at 20 mg/kg/day (Mus musculus [11]): 15.8%
inhibition in vivo at 20 mg/kg/day (Mus musculus [12]): 57.7%
inhibition in vivo at 20 mg/kg/day (Mus musculus [13]; route intraperitoneal): 52.4%
inhibition (Mus musculus [3]): Active
inhibition (Mus musculus [4]): Active
inhibition (Mus musculus [5]): Active

CC(C)(C)c1ccc2[nH]cc(C(=O)Nc3ccc(F)cc3)c(=O)c2c1
inhibition at 10 µM (NRK-49F [1]): 23.5%

CC(C)(C)c1ccc(NC(=O)c2cn(CCCl)c3ccc(C(C)(C)C)cc3c2=O)cc1
inhibition at 10 µM (NRK-49F [1]): 35.8%

CC(C)(C)c1ccc2[nH]cc(C(=O)Nc3cc(O)c(C(C)(C)C)cc3C(C)(C)C)c(=O)c2c1
inhibition at 10 µM (NRK-49F [1]): 73.8%
inhibition (INH) (RAW264.7): 45.7%

CC(C)(C)c1ccc2[nH]cc(C(=O)Nc3ccc(C(C)(C)C)c([N+](=O)[O-])c3)c(=O)c2c1
inhibition at 10 µM (NRK-49F [1]): 75.7%
inhibition (INH) (RAW264.7): 47.7%

CC(C)(C)c1ccc(NC(=O)c2cn(CCN3CCCCC3)c3ccc(C(C)(C)C)cc3c2=O)cc1
inhibition at 10 µM (NRK-49F [1]): 30.1%

CN1CCN(CCn2cc(C(=O)Nc3ccc(C(C)(C)C)cc3)c(=O)c3cc(C(C)(C)C)ccc32)CC1
inhibition at 10 µM (NRK-49F [1]): 46.6%

COc1ccccc1NC(=O)c1c[nH]c2ccc(C(C)(C)C)cc2c1=O
inhibition at 10 µM (NRK-49F [1]): 47.9%
